Source: ChEMBL document CHEMBL5579802, “Identification of 3,4-dihydropyrimido[4,5-d]pyrimidin-2(1H)-one scaffolds as potent Lck inhibitors as anti-cancer agents” (Bioorg Med Chem Lett, 2024)

Assays:
TK-10 = assay: Antiproliferative activity against human TK-10 cells; type: functional
COLO 201 [1] = assay: Induction of apoptosis in human COLO201 cells assessed as early apoptotic cells at 10 uM by Annexin V-FITC and PI staining based flow cytometry analysis (reference value: 3.2%); type: functional
COLO 201 [2] = assay: Induction of apoptosis in human COLO201 cells assessed as viable cells at 1 uM by Annexin V-FITC and PI staining based flow cytometry analysis (reference value: 90%); type: functional; details: read-out: Activity
BT-549 = assay: Antiproliferative activity against human BT-549 cells; type: functional
SK-MEL-2 = assay: Antiproliferative activity against human SK-MEL-2 cells; type: functional
CAKI-1 = assay: Antiproliferative activity against human CAKI-1 cells; type: functional
COLO 201 [3] = assay: Induction of apoptosis in human COLO201 cells assessed as early apoptotic cells at 2 uM by Annexin V-FITC and PI staining based flow cytometry analysis (reference value: 3.2%); type: functional
HT-29 = assay: Antiproliferative activity against human HT-29 cells; type: functional
SNB-19 = assay: Antiproliferative activity against human SNB-19 cells; type: functional
RXF 393 = assay: Antiproliferative activity against human RXF 393 cells; type: functional
LOX IMVI = assay: Antiproliferative activity against human LOX IMVI cells; type: functional
MDA-MB-435 = assay: Antiproliferative activity against human MDA-MB-435 cells; type: functional
PC-3 = assay: Antiproliferative activity against human PC-3 cells; type: functional
OVCAR-8 = assay: Antiproliferative activity against human OVCAR-8 cells; type: functional
SF-268 = assay: Antiproliferative activity against human SF-268 cells; type: functional
HCT-116 = assay: Antiproliferative activity against human HCT-116 cells; type: functional
NCI-H226 = assay: Antiproliferative activity against human NCI-H226 cells; type: functional
A549 = assay: Antiproliferative activity against human A549 cells; type: functional
COLO 201 [4] = assay: Induction of apoptosis in human COLO201 cells assessed as early apoptotic cells at 1 uM by Annexin V-FITC and PI staining based flow cytometry analysis (reference value: 3.2%); type: functional
U-251 = assay: Antiproliferative activity against human U-251 cells; type: functional
NCI/ADR-RES = assay: Antiproliferative activity against human NCI/ADR-RES cells; type: functional
COLO 201 [5] = assay: Induction of apoptosis in human COLO201 cells assessed as viable cells at 2 uM by Annexin V-FITC and PI staining based flow cytometry analysis (reference value: 90%); type: functional; details: read-out: Activity
OVCAR-5 = assay: Antiproliferative activity against human OVCAR-5 cells; type: functional
[6] = Antiproliferative activity against human […] cells; type: functional
A498 = assay: Antiproliferative activity against human A498 cells; type: functional
MCF7 = assay: Antiproliferative activity against human MCF7 cells; type: functional
COLO 201 [7] = assay: Induction of apoptosis in human COLO201 cells assessed as early apoptotic cells at 0.2 uM by Annexin V-FITC and PI staining based flow cytometry analysis (reference value: 3.2%); type: functional
COLO 201 [8] = assay: Induction of apoptosis in human COLO201 cells assessed as necrotic cells at 0.2 uM by Annexin V-FITC and PI staining based flow cytometry analysis (reference value: 0.7%); type: functional
Malme-3M = assay: Antiproliferative activity against human Malme-3M cells; type: functional
MDA-MB-231 = assay: Antiproliferative activity against human MDA-MB-231 cells; type: functional
HOP-92 = assay: Antiproliferative activity against human HOP-92 cells; type: functional
KM12 = assay: Antiproliferative activity against human KM12 cells; type: functional
DU-145 = assay: Antiproliferative activity against human DU-145 cells; type: functional
OVCAR-3 = assay: Antiproliferative activity against human OVCAR-3 cells; type: functional
MDA-MB-468 = assay: Antiproliferative activity against human MDA-MB-468 cells; type: functional
UACC-257 = assay: Antiproliferative activity against human UACC-257 cells; type: functional
M14 = assay: Antiproliferative activity against human M14 cells; type: functional
NCI-H522 = assay: Antiproliferative activity against human NCI-H522 cells; type: functional
NCI-H23 = assay: Antiproliferative activity against human NCI-H23 cells; type: functional
IGROV-1 = assay: Antiproliferative activity against human IGROV-1 cells; type: functional
SNB-75 = assay: Antiproliferative activity against human SNB-75 cells; type: functional
COLO 201 [9] = assay: Induction of apoptosis in human COLO201 cells assessed as viable cells at 10 uM by Annexin V-FITC and PI staining based flow cytometry analysis (reference value: 90%); type: functional; details: read-out: Activity
EKVX = assay: Antiproliferative activity against human EKVX cells; type: functional
UO-31 = assay: Antiproliferative activity against human UO-31 cells; type: functional
HCC 2998 = assay: Antiproliferative activity against human HCC 2998 cells; type: functional
HL-60(TB) = assay: Antiproliferative activity against human HL-60(TB) cells; type: functional
HCT-15 = assay: Antiproliferative activity against human HCT-15 cells; type: functional
MOLT-4 = assay: Antiproliferative activity against human MOLT-4 cells; type: functional
SK-MEL-28 = assay: Antiproliferative activity against human SK-MEL-28 cells; type: functional
COLO 201 [10] = assay: Induction of apoptosis in human COLO201 cells assessed as necrotic cells at 10 uM by Annexin V-FITC and PI staining based flow cytometry analysis (reference value: 0.7%); type: functional
K562 = assay: Antiproliferative activity against human K562 cells; type: functional
COLO 201 [11] = assay: Induction of apoptosis in human COLO201 cells assessed as necrotic cells at 2 uM by Annexin V-FITC and PI staining based flow cytometry analysis (reference value: 0.7%); type: functional
NCI-H460 = assay: Antiproliferative activity against human NCI-H460 cells; type: functional
COLO 201 [12] = assay: Antiproliferative activity against human COLO201 cells; type: functional
Hs-578T = assay: Antiproliferative activity against human Hs-578T cells; type: functional
SK-OV-3 = assay: Antiproliferative activity against human SK-OV-3 cells; type: functional
COLO 201 [13] = assay: Induction of apoptosis in human COLO201 cells assessed as late apoptotic cells at 0.2 uM by Annexin V-FITC and PI staining based flow cytometry analysis (reference value: 6.2%); type: functional
HOP-62 = assay: Antiproliferative activity against human HOP-62 cells; type: functional
COLO 201 [14] = assay: Induction of apoptosis in human COLO201 cells assessed as necrotic cells at 1 uM by Annexin V-FITC and PI staining based flow cytometry analysis (reference value: 0.7%); type: functional
T47D = assay: Antiproliferative activity against human T47D cells; type: functional
786-0 = assay: Antiproliferative activity against human 786-0 cells; type: functional
SR = assay: Antiproliferative activity against human SR cells; type: functional
SN12C = assay: Antiproliferative activity against human SN12C cells; type: functional
COLO 201 [15] = assay: Induction of apoptosis in human COLO201 cells assessed as increase in cleaved PARP level by Western blotting analysis; type: functional, cell-based; details: dose 1-10 µM
SW-620 = assay: Antiproliferative activity against human SW620 cells; type: functional
ACHN = assay: Antiproliferative activity against human ACHN cells; type: functional
COLO 201 [16] = assay: Induction of apoptosis in human COLO201 cells assessed as viable cells at 0.2 uM by Annexin V-FITC and PI staining based flow cytometry analysis ( Rvb = 90%); type: functional; details: read-out: Activity
COLO 205 = assay: Antiproliferative activity against human COLO 205 cells; type: functional

## Cc1ccc(Nc2ncc3c(n2)N(C)C(=O)N(c2cc(NC(=O)c4ccc([N+](=O)[O-])c(OCC(C)C)c4)ccc2C)C3)cn1
TK-10
  GI50: 390 nM
COLO 201 [1]
  Activity: 13.3%
COLO 201 [2]
  viability at 1 µM: 61.3%
BT-549
  GI50: 1370 nM
SK-MEL-2
  GI50: 92 nM
CAKI-1
  GI50: 60 nM
COLO 201 [3]
  Activity: 17%
HT-29
  GI50: 410 nM
SNB-19
  GI50: 3920 nM
RXF 393
  GI50: 94 nM
LOX IMVI
  GI50: 200 nM
MDA-MB-435
  GI50: 250 nM
PC-3
  GI50: 790 nM
OVCAR-8
  GI50: 410 nM
SF-268
  GI50: 490 nM
HCT-116
  GI50: 330 nM
NCI-H226
  GI50: 410 nM
A549
  GI50: 430 nM
COLO 201 [4]
  Activity: 13.9%
U-251
  GI50: 550 nM
NCI/ADR-RES
  GI50: 3530 nM
COLO 201 [5]
  viability at 2 µM: 57.1%
OVCAR-5
  GI50: 540 nM
[6]
  GI50: 480 nM
A498
  GI50: 220 nM
MCF7
  GI50: 8330 nM
COLO 201 [7]
  Activity: 5.6%
COLO 201 [8]
  Activity: 1.8%
Malme-3M
  GI50: 200 nM
MDA-MB-231
  GI50: 130 nM
HOP-92
  GI50: 90 nM
KM12
  GI50: 740 nM
DU-145
  GI50: 400 nM
OVCAR-3
  GI50: 1090 nM
MDA-MB-468
  GI50: 380 nM
UACC-257
  GI50: 670 nM
M14
  GI50: 160 nM
NCI-H522
  GI50: 300 nM
NCI-H23
  GI50: 499 nM
IGROV-1
  GI50: 210 nM
SNB-75
  GI50: 290 nM
COLO 201 [9]
  viability at 10 µM: 54.4%
EKVX
  GI50: 980 nM
UO-31
  GI50: 270 nM
HCC 2998
  GI50: 1100 nM
HL-60(TB)
  GI50: 230 nM
HCT-15
  GI50: 410 nM
MOLT-4
  GI50: 430 nM
SK-MEL-28
  GI50: 240 nM
COLO 201 [10]
  Activity: 7.4%
K562
  GI50: 10 nM
COLO 201 [11]
  Activity: 5.2%
NCI-H460
  GI50: 430 nM
COLO 201 [12]
  GI50: 1260 nM
Hs-578T
  GI50: 280 nM
SK-OV-3
  GI50: 190 nM
COLO 201 [13]
  Activity: 11.7%
HOP-62
  GI50: 1130 nM
COLO 201 [14]
  Activity: 4.6%
T47D
  GI50: 700 nM
786-0
  GI50: 450 nM
SR
  GI50: 180 nM
SN12C
  GI50: 170 nM
COLO 201 [15]
  Activity: Dose-Dependent Effect
SW-620
  GI50: 520 nM
ACHN
  GI50: 150 nM
COLO 201 [16]
  viability at 0.2 µM: 80.9%
COLO 205
  GI50: 240 nM
